Bridge positions count the residues as written; N and C are the ends. Peptide text beside a SMILES is read from it.
Assays:
Experiment in all cases: biochemical
[1] = target: T1, norepinephrine transporter (NET) (Rattus norvegicus, UniProt Q63380); format: biochemical
T1 construct: brains were processed to yield synaptosomes as previously described; from tissue; host or cells: rat whole brain minus caudate and cerebellum, synaptosomes

[2] = target: T2, serotonin transporter (SERT) (Rattus norvegicus, UniProt P31652)
T2 construct: brains were processed to yield synaptosomes as previously described; from tissue; host or cells: rat whole brain minus caudate and cerebellum, synaptosomes

[3] = target: T3, dopamine transporter (DAT) (Rattus norvegicus, UniProt P23977)
T3 construct: brains were processed to yield synaptosomes as previously described; from tissue; host or cells: rat caudate synaptosomes
T3 sequence (P23977 whole entry): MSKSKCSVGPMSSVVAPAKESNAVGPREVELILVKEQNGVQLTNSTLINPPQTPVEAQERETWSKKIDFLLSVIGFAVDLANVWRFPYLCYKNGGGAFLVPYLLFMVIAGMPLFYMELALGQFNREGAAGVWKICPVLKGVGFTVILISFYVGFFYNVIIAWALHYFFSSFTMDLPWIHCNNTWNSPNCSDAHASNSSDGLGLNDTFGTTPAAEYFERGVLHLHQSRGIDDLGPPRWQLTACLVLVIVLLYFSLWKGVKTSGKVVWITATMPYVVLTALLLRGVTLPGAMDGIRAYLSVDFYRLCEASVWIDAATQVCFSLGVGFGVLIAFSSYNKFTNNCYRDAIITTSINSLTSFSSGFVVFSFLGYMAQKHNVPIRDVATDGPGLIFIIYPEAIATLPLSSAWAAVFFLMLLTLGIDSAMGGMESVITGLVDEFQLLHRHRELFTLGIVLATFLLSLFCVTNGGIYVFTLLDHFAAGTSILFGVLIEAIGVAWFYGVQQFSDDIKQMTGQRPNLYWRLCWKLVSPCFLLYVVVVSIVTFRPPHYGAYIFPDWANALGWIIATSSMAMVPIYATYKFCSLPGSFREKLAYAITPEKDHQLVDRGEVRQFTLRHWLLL

T1 sequence (Q63380 1-617): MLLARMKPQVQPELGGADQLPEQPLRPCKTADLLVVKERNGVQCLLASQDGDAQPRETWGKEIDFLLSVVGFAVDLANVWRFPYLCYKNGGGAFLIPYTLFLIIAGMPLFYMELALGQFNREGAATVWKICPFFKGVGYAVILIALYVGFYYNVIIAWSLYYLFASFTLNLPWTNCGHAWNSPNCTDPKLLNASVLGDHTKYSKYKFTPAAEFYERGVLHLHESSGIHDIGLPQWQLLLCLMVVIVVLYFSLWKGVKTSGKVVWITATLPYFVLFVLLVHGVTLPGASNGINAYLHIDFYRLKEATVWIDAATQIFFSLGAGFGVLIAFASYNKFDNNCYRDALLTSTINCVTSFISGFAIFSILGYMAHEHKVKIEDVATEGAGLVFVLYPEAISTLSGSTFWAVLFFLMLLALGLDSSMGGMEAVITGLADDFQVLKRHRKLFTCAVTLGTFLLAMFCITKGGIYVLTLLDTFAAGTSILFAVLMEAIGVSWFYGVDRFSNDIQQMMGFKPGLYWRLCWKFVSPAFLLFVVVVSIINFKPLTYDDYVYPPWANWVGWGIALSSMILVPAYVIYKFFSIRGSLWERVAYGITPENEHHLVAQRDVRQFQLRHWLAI
T2 sequence (P31652 whole entry): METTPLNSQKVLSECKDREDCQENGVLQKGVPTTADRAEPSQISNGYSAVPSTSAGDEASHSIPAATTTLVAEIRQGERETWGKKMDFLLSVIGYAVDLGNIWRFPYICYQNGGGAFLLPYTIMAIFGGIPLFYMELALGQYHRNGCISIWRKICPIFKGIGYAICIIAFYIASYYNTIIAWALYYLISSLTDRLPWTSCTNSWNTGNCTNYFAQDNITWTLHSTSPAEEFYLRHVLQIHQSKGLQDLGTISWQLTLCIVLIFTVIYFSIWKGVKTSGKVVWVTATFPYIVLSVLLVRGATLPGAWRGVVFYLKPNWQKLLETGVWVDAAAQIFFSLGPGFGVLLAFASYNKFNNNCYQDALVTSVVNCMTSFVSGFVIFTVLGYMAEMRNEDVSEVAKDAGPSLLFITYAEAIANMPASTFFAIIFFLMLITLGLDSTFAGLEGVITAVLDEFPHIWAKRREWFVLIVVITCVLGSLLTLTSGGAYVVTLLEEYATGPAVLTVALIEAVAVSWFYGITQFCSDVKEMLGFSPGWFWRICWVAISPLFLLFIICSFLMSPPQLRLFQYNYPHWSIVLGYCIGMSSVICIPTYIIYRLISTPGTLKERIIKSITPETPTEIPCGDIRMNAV

CSCC[C@H](NC(=O)[C@H](CCCNC(=N)N)NC(=O)[C@H](Cc1ccc(O)cc1)NC(=O)CNC(=O)[C@@H]1CSSC[C@H](NC(=O)[C@@H](NC(=O)[C@@H](N)CO)[C@@H](C)O)C(=O)N1)C(=O)N[C@H]1CSSC[C@@H](C(N)=O)NC(=O)[C@@H]2CCCN2C(=O)[C@H](C(C)C)NC1=O [PnID C] (H-STCCGYRMCVPC-NH2; disulfide 3-4, 9-12; N-terminus assumed)
IC50 [1]: > 100 µM | activity at NET relative to ribbon isomer (in words) [1]: much less active in inhibiting the rat NET | biological activity (in words) [1]: did not display any measurable biological activity | IC50 [2]: > 100 µM | IC50 [3]: > 100 µM

— publication PMC9964023 (Marine Drugs, 2023)
